Assays:
[1] = 101.33 kPa, Liquid, Vibrating tube method
[2] = molar heat capacity at constant pressure; settings: 101.33 kPa, Liquid, Small sample (50 mg) DSC
[3] = xn = mol fraction of the nth substance listed; settings: 101 kPa, Liquid, Small sample (50 mg) DSC

CCCCC(O)CO (configuration not stated) [1,2-hexanediol]
Settings | mass density, 283.15 K [kg/m3] | mass density, 293.15 K [kg/m3] | mass density, 298.15 K [kg/m3] | mass density, 303.15 K [kg/m3] | mass density, 313.15 K [kg/m3] | molar heat capacity at constant pressure, 283.15 K [J/K/mol] | molar heat capacity at constant pressure, 293.15 K [J/K/mol] | molar heat capacity at constant pressure, 298.15 K [J/K/mol] | molar heat capacity at constant pressure, 303.15 K [J/K/mol] | molar heat capacity at constant pressure, 313.15 K [J/K/mol]
[1] | 958.85 | 951.73 | 948.1 | 944.44 | 937.06 | – | – | – | – | –
[2] | – | – | – | – | – | 277.11 | 287.76 | 293.1 | 298.44 | 309.15

OCCCCO [1,4-butanediol]
Settings | mass density, 283.15 K [kg/m3] | mass density, 293.15 K [kg/m3] | mass density, 298.15 K [kg/m3] | mass density, 303.15 K [kg/m3] | mass density, 313.15 K [kg/m3] | molar heat capacity at constant pressure, 283.15 K [J/K/mol] | molar heat capacity at constant pressure, 293.15 K [J/K/mol] | molar heat capacity at constant pressure, 298.15 K [J/K/mol] | molar heat capacity at constant pressure, 303.15 K [J/K/mol] | molar heat capacity at constant pressure, 313.15 K [J/K/mol]
[1] | 1022.21 | 1016.11 | 1013.06 | 1009.99 | 1003.85 | – | – | – | – | –
[2] | – | – | – | – | – | 195.51 | 200.85 | 203.73 | 206.71 | 212.96

OCCO [1,2-ethanediol] + O
excess molar heat capacity [J/K/mol], [3]
Settings | 283.15 K | 293.15 K | 298.15 K | 303.15 K | 313.15 K
x1 = 0.00991 | 0.43 | 0.3 | 0.26 | 0.26 | 0.37
x1 = 0.02619 | 0.87 | 0.79 | 0.76 | 0.75 | 0.74
x1 = 0.04637 | 1.03 | 1.25 | 1.33 | 1.39 | 1.5
x1 = 0.07516 | 1.32 | 1.72 | 1.85 | 1.96 | 2.17
x1 = 0.09514 | – | – | 1.99 | 2.2 | 2.5
x1 = 0.1016 | 1.26 | – | – | – | –
x1 = 0.1245 | 1.16 | 1.91 | 2.17 | 2.38 | 2.76
x1 = 0.1491 | 0.94 | 1.76 | 2.08 | 2.35 | 2.82
x1 = 0.1731 | 0.76 | 1.68 | 2.01 | 2.29 | –
x1 = 0.2203 | – | – | – | – | 2.62
x1 = 0.2903 | – | 0.61 | 1.14 | 1.6 | 2.42
x1 = 0.4076 | – | 0.05 | 0.54 | 0.98 | 1.82
x1 = 0.4641 | – | – | 0.35 | 0.78 | 1.58
x1 = 0.6066 | – | – | 0.02 | 0.035 | 0.96
x1 = 0.6959 | – | – | – | 0.15 | 0.63
x1 = 0.804 | – | – | – | – | 0.18

OCCCO [propan-1,3-diol]
Settings | mass density, 283.15 K [kg/m3] | mass density, 293.15 K [kg/m3] | mass density, 298.15 K [kg/m3] | mass density, 303.15 K [kg/m3] | mass density, 313.15 K [kg/m3] | molar heat capacity at constant pressure, 283.15 K [J/K/mol] | molar heat capacity at constant pressure, 293.15 K [J/K/mol] | molar heat capacity at constant pressure, 298.15 K [J/K/mol] | molar heat capacity at constant pressure, 303.15 K [J/K/mol] | molar heat capacity at constant pressure, 313.15 K [J/K/mol]
[1] | 1059.14 | 1052.85 | 1049.68 | 1046.51 | 1040.12 | – | – | – | – | –
[2] | – | – | – | – | – | 169.44 | 174.37 | 176.91 | 179.52 | 185.09

OCCO [1,2-ethanediol]
Settings | mass density, 283.15 K [kg/m3] | mass density, 293.15 K [kg/m3] | mass density, 303.15 K [kg/m3] | mass density, 313.15 K [kg/m3] | molar heat capacity at constant pressure, 283.15 K [J/K/mol] | molar heat capacity at constant pressure, 293.15 K [J/K/mol] | molar heat capacity at constant pressure, 298.15 K [J/K/mol] | molar heat capacity at constant pressure, 303.15 K [J/K/mol] | molar heat capacity at constant pressure, 313.15 K [J/K/mol]
[1] | 1120.39 | 1113.34 | 1106.23 | 1099.07 | – | – | – | – | –
[2] | – | – | – | – | 145.38 | 148.53 | 150.22 | 151.96 | 155.49

CC(O)CO (configuration not stated) [1,2-propanediol]
Settings | mass density, 283.15 K [kg/m3] | mass density, 293.15 K [kg/m3] | mass density, 298.15 K [kg/m3] | mass density, 303.15 K [kg/m3] | mass density, 313.15 K [kg/m3] | molar heat capacity at constant pressure, 283.15 K [J/K/mol] | molar heat capacity at constant pressure, 293.15 K [J/K/mol] | molar heat capacity at constant pressure, 298.15 K [J/K/mol] | molar heat capacity at constant pressure, 303.15 K [J/K/mol] | molar heat capacity at constant pressure, 313.15 K [J/K/mol]
[1] | 1043.89 | 1036.58 | 1032.86 | 1029.1 | 1021.48 | – | – | – | – | –
[2] | – | – | – | – | – | 183.26 | 188.62 | 191.29 | 193.95 | 199.25

CCCCC(O)CO (configuration not stated) [1,2-hexanediol] + O
excess molar heat capacity [J/K/mol], [3]
Settings | 283.15 K | 293.15 K | 298.15 K | 303.15 K | 313.15 K
x1 = 0.04991 | – | 0.35 | – | 1.74 | 2.85
x1 = 0.09952 | – | – | 0.87 | 1.95 | 3.92
x1 = 0.1989 | – | 0.68 | 1.97 | 3.16 | 5.28
x1 = 0.2988 | – | 1.31 | 2.52 | 3.76 | 5.95
x1 = 0.4015 | – | 0.89 | 2.19 | 3.35 | 5.35
x1 = 0.4841 | – | 1.13 | 2.22 | 3.15 | 4.97
x1 = 0.5535 | – | 1.45 | 2.33 | 3.16 | –
x1 = 0.6972 | – | 0.9 | 1.63 | 2.27 | 3.48
x1 = 0.7927 | – | 0.92 | 1.26 | 1.52 | 2.27
x1 = 0.8822 | – | 0.82 | 0.94 | 0.89 | 1.65
x1 = 0.9437 | 0.04 | 0.68 | 0.47 | 0.22 | 0.62
